Laboratory results published in ChEMBL document CHEMBL1909046, “DrugMatrix in vitro pharmacology data”.

Assays:
[1] = DRUGMATRIX: Glutamate, AMPA radioligand binding (ligand: [3H] AMPA); type: cell membranes, Rattus norvegicus, Wistar, Cerebral cortex, Membrane; details: Not Active = under 50% inhibition at 10 µM
Histamine H2 receptor = Histamine H2 receptor (Homo sapiens, UniProt P25021); type: cell membranes, CHO-K1, Membrane; further: in other assays of this panel Not Active means under 50% inhibition at 10 µM
Sequence of Histamine H2 receptor (P25021 whole entry): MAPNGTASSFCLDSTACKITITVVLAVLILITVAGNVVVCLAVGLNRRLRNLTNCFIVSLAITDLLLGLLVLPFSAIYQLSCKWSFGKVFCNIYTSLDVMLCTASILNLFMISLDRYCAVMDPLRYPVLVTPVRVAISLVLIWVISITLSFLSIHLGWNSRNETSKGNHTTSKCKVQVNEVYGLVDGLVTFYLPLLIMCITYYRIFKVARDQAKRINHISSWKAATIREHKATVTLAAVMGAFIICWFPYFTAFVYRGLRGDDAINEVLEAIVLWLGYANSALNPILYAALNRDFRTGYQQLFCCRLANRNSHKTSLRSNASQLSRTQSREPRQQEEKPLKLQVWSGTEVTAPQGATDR

[2] = DRUGMATRIX: Calcium Channel Type L, Dihydropyridine radioligand binding (ligand: [3H] Nitrendipine); type: cell membranes, Rattus norvegicus, Wistar, Cerebral cortex, Membrane; details: Not Active = under 50% inhibition at 10 µM
[3] = biological target: T1, Angiotensin-converting enzyme (Oryctolagus cuniculus, UniProt P12822); type: tissue-based, Lung;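 further: enzymatic inhibition of angiotensin-converting enzyme measured with FAPGG as the substrate; in other assays of this panel Not Active means under 50% inhibition at 10 µM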
T1 sequence (P12822 whole entry): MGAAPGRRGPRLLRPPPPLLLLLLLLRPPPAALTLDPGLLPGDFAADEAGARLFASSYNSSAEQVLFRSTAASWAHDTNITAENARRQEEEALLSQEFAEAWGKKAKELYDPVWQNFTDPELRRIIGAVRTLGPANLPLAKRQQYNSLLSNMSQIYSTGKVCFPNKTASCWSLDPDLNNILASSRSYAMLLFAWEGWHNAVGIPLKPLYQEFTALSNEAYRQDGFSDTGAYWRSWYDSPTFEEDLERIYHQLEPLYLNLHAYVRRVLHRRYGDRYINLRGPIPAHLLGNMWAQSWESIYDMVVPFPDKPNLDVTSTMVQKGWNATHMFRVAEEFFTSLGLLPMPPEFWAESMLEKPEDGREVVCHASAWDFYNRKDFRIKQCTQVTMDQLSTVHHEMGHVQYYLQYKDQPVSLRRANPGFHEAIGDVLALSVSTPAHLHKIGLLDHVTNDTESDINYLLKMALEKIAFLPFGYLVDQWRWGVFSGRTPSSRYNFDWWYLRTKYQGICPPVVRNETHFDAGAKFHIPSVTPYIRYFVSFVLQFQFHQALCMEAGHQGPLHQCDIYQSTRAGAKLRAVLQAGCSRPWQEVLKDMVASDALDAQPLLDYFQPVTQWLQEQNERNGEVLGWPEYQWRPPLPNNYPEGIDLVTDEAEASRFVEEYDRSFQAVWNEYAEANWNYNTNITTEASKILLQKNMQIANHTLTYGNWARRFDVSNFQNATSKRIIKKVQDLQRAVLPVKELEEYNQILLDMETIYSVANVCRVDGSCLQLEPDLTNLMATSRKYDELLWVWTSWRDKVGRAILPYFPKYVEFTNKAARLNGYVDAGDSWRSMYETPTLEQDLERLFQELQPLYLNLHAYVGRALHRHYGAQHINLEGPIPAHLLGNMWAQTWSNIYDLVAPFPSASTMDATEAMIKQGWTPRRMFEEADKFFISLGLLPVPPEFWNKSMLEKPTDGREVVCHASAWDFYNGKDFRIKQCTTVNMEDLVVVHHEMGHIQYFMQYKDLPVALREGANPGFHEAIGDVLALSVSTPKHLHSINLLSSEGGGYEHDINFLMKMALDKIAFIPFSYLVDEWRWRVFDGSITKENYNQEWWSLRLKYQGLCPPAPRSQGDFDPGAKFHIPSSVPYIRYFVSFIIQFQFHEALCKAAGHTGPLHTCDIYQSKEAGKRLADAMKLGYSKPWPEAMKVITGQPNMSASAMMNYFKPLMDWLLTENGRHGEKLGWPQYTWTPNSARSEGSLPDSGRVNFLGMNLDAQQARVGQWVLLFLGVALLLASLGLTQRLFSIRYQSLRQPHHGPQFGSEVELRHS

[4] = DRUGMATRIX: Purinergic P2X radioligand binding (ligand: [3H] alpha, beta-Methylene-ATP); type: cell membranes, Oryctolagus cuniculus, New Zealand albino, Urinary bladder, Membrane; details: Not Active = under 50% inhibition at 10 µM
[5] = biological target: Aldo-keto reductase family 1 member B1 (Rattus norvegicus, UniProt P07943); type: tissue-based, Lens of camera-type eye;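 further: inhibition of aldose reductase enzyme activity, measured with DL-glyceraldehyde as the substrate; in other assays of this panel Not Active means under 50% inhibition at 10 µM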
[6] = biological target: Sigma non-opioid intracellular receptor 1 (Homo sapiens, UniProt Q99720); test: DRUGMATRIX: Sigma1 radioligand binding (ligand: [3H] Haloperidol); type: cell membranes, Jurkat, Membrane; details: Not Active = under 50% inhibition at 10 µM; for Ki: read-out: Ki
Sequence of Sigma non-opioid intracellular receptor 1 (Q99720 whole entry): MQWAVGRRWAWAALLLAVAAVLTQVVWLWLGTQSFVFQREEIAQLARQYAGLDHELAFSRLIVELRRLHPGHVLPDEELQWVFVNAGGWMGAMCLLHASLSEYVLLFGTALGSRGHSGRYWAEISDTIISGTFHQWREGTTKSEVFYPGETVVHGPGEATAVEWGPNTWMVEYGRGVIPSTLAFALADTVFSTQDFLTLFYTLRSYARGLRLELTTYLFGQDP

Compound | IC50 [1] | Ki [1] | IC50 (Histamine H2 receptor; cho-k1) | IC50 ([2]; read-out: IC50) [nM] | Ki ([2]; read-out: Ki) [nM] | IC50 [3] | IC50 [4] | Ki [4] | IC50 [5] | IC50 ([6]; jurkat) | IC50 [2] | Ki [2] | IC50 ([6]; read-out: IC50) [nM] | Ki [6] [nM] | IC50 (Histamine H2 receptor; read-out: IC50) [nM] | Ki (Histamine H2 receptor; read-out: Ki) [nM]
Cc1c(C)c2c(c(C)c1O)CCC(C)(CN1CCN(c3cc(N4CCCC4)nc(N4CCCC4)n3)CC1)O2 (stereo unspecified) | Not Active | Not Active | Not Active | 1660 | 1070 | Not Active | Not Active | Not Active | Not Active | Not Active |  |  |  |  |  | 
COc1ccc(CCN(C)CCCC(C#N)(c2ccc(OC)c(OC)c2)C(C)C)cc1OC (stereo unspecified) | Not Active | Not Active |  |  |  | Not Active | Not Active | Not Active | Not Active | Not Active | Not Active | Not Active |  |  |  | 
CC(C)Cc1ccc([C@@H](C)C(=O)O)cc1 [(R)-IBUPROPHEN] | Not Active | Not Active | Not Active |  |  | Not Active | Not Active | Not Active | Not Active | Not Active | Not Active | Not Active |  |  |  | 
CN(C)CCOC(c1ccccc1)c1ccccc1 [DIPHENHYDRAMINE] |  |  | Not Active |  |  | Not Active |  |  | Not Active | Not Active |  |  |  |  |  | 
Clc1ccc(COC(Cn2ccnc2)c2ccc(Cl)cc2Cl)cc1 (stereo unspecified) [ECONAZOLE] |  |  |  |  |  | Not Active |  |  | Not Active |  |  |  | 21100 | 8870 |  | 
CCN(CC)CCOc1ccc(/C(=C(/Cl)c2ccccc2)c2ccccc2)cc1 [ENCLOMIPHENE] |  |  | Not Active |  |  | Not Active |  |  | Not Active |  |  |  |  |  |  | 
Fc1ccc(C(c2ccc(F)cc2)N2CCN(C/C=C/c3ccccc3)CC2)cc1 [FLUNARIZINE] |  |  | Not Active |  |  | Not Active |  |  | Not Active |  |  |  | 25 | 10 |  | 
CNCCC(Oc1ccc(C(F)(F)F)cc1)c1ccccc1 (stereo unspecified) [FLUOXETINE] |  |  | Not Active |  |  | Not Active |  |  | Not Active |  |  |  |  |  |  | 
Cc1ccc(NC(=O)c2ccc(CN3CCN(C)CC3)cc2)cc1Nc1nccc(-c2cccnc2)n1 [IMATINIB] |  |  |  |  |  | Not Active |  |  | Not Active | Not Active |  |  |  |  | 1960 | 1930
CC(C)Oc1ccc2c(=O)c(-c3ccccc3)coc2c1 [IPRIFLAVONE] | Not Active | Not Active | Not Active |  |  | Not Active | Not Active | Not Active | Not Active | Not Active | Not Active | Not Active |  |  |  | 
CC(C)NCC(O)c1ccc(O)c(O)c1 (stereo unspecified) [ISOPROTERENOL] | Not Active | Not Active | Not Active |  |  | Not Active | Not Active | Not Active | Not Active | Not Active | Not Active | Not Active |  |  |  | 
CNC1(c2ccccc2Cl)CCCCC1=O (stereo unspecified) [KETAMINE] | Not Active | Not Active | Not Active |  |  | Not Active | Not Active | Not Active | Not Active | Not Active | Not Active | Not Active |  |  |  | 
N#Cc1ccc(C(c2ccc(C#N)cc2)n2cncn2)cc1 [LETROZOLE] | Not Active | Not Active | Not Active |  |  | Not Active | Not Active | Not Active | Not Active | Not Active | Not Active | Not Active |  |  |  | 
CCN1CCC[C@H]1CNC(=O)c1cc(S(N)(=O)=O)ccc1OC [LEVOSULPIRIDE] | Not Active | Not Active | Not Active |  |  | Not Active | Not Active | Not Active | Not Active | Not Active | Not Active | Not Active |  |  |  | 
CCN(CC)CC(=O)Nc1c(C)cccc1C [LIDOCAINE] | Not Active | Not Active | Not Active |  |  | Not Active | Not Active | Not Active | Not Active | Not Active | Not Active | Not Active |  |  |  | 
O=C1Nc2ccc(Cl)cc2C(c2ccccc2Cl)=NC1O (stereo unspecified) [LORAZEPAM] | Not Active | Not Active | Not Active |  |  | Not Active | Not Active | Not Active | Not Active | Not Active | Not Active | Not Active |  |  |  | 
CO[C@@H]1[C@@H](OC)[C@H](C)[C@@](O)(CC(=O)O)O[C@H]1[C@H](C)[C@H]1O[C@@]2(CC[C@@](C)([C@H]3CC[C@@](C)([C@@H]4O[C@@H]([C@H]5O[C@](C)(O)[C@H](C)C[C@@H]5C)C[C@@H]4O[C@@H]4C[C@H](OC)[C@@H](OC)[C@H](C)O4)O3)O2)C[C@H](O)[C@H]1C [MADURAMICIN ACID] | Not Active | Not Active | Not Active |  |  | Not Active | Not Active | Not Active | Not Active | Not Active | Not Active | Not Active |  |  |  | 
COc1c2occc2cc2ccc(=O)oc12 [METHOXSALEN] | Not Active | Not Active | Not Active |  |  | Not Active | Not Active | Not Active | Not Active | Not Active | Not Active | Not Active |  |  |  | 
C[C@H]1C[C@@H]2[C@H]([C@@H](O)C[C@@]3(C)[C@H]2CC[C@]3(O)C(=O)CO)[C@@]2(C)C=CC(=O)C=C12 [METHYLPREDNISOLONE] | Not Active | Not Active | Not Active |  |  | Not Active | Not Active | Not Active | Not Active | Not Active | Not Active | Not Active |  |  |  | 
Cc1cccc(C)c1OCC(C)N (stereo unspecified) [MEXILETINE] | Not Active | Not Active | Not Active |  |  | Not Active | Not Active | Not Active | Not Active | Not Active | Not Active | Not Active |  |  |  | 
Nc1cc(N2CCCCC2)nc(N)[n+]1[O-] [MINOXIDIL] | Not Active | Not Active | Not Active |  |  | Not Active | Not Active | Not Active | Not Active | Not Active | Not Active | Not Active |  |  |  | 
CO[C@H]1/C=C/O[C@@]2(C)Oc3c(C)c(O)c4c(O)c(c(/C=N/N5CCN(C6CCCC6)CC5)c(O)c4c3C2=O)NC(=O)/C(C)=C\C=C\[C@H](C)[C@H](O)[C@@H](C)[C@@H](O)[C@@H](C)[C@H](OC(C)=O)[C@@H]1C [RIFAPENTINE] | Not Active | Not Active | Not Active |  |  | Not Active | Not Active | Not Active | Not Active | Not Active | Not Active | Not Active |  |  |  | 
CCCCOc1cc(CC2CNC(=O)N2)ccc1OC (stereo unspecified) [RO-201724] | Not Active | Not Active | Not Active |  |  | Not Active | Not Active | Not Active | Not Active | Not Active | Not Active | Not Active |  |  |  | 
CN[C@H]1CC[C@@H](c2ccc(Cl)c(Cl)c2)c2ccccc21 [SERTRALINE] |  |  | Not Active |  |  | Not Active |  |  | Not Active |  |  |  |  |  |  | 
